Experimental data: patent publication US10131660B2, “Tetrahydro-azepinoquinolines as agonists of the 5-HT2C receptor” (Sunnylife Pharma, Inc., priority 2014, dated 2018)

Biological target: T1, human 5-HT2C receptor (Homo sapiens, UniProt P28335)
T1 construct: host or cells: CHO cells, stably expressing
T1 sequence (P28335 33-458): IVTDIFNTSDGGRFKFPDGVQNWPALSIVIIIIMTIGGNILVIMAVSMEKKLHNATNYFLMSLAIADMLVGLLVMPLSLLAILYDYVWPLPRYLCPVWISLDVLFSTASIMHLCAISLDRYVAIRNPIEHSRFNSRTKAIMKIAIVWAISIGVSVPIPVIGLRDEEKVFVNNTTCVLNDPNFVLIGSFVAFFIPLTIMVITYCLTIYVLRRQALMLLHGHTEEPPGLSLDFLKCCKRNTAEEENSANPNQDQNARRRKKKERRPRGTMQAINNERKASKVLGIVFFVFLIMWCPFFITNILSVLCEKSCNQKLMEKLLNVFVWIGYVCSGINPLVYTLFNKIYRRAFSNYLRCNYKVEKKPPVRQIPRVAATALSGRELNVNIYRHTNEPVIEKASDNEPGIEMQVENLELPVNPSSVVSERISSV
Assay: Functional calcium mobilization (FLIPR) assay, 5-HT2C
Type: cell-based
Conditions: CHO cells stably expressing human 5-HT2C receptor; agonist-stimulated Ca2+ flux
Procedure: (a) Cell Culture for the Human 5-HT2A, Human 5-HT2B, and Human 5-HT2C Receptors:
CHO cells stably expressing the human 5-HT2A, human 5-HT2B, and human 5-HT2C receptors were purchased from PerkinElmer (Waltham, Mass.). Cells were grown in advance DMEM/F12, 1% dialyzed fetal bovine serum, 2 mM L-glutamine, 100 units/mL penicillin, 1 mg/mL streptomycin, and 0.4 mg/ml Geneticin at 37° C. in 5% CO2 atmosphere.
(b) Calcium Mobilization Assays:
Cells were seeded in black clear-bottom 384-well plates at a density of 10,000 cells/well and incubated overnight at 37° C. in 5% CO2/95% atmosphere. After removing medium, cells were loaded with modified HBSS buffer (137.9 mM NaCl, 5.3 mM KCl, 5.5 mM glucose, 20 mM Hepes, 0.49 mM MgCl2, 1.26 mM CaCl2, 0.41 mM MgSO4, 0.33 mM Na2HPO4, and 0.44 mM KH2PO4) containing the FLIPR Calcium 4 dye (Molecular Devices, CA) and probenecid ([…]) and incubated at 37° C. for 60 min, according to the manufacturer's instructions. Compounds were diluted in HBSS buffer containing 6% DMSO as six folds. Final DMSO concentration in the assay was 1%. The dose-response of agonist-stimulated Ca^2+ flux was measured on a Fluorometric Imaging Plate Reader (FLIPR Tetra) (Molecular Devices, CA).
Data were analyzed by nonlinear least squares curve fitting using GraphPad Prism 5.0 software (GraphPad Software, CA). Agonist stimulation in FLIPR assay was fitted to sigmoidal dose response curves using the equation Y=Bottom+(Top-Bottom)/(1+10^((Log EC50−X)*Hill Slope)), where X is the logarithm of concentration of compounds. Y is the fluorescent response, EC50 is the concentration of compound producing 50% of maximum response. Maximum responses (Emax) of compounds were calculated based on % of stimulation relative to the response of α-methyl-5HT (100%). EC50's are representative of two or three separate experiments performed in triplicates.

EC50 [nM] | SMILES
< 15 | Cc1c2c(nc3c(C4CC4)ccc(Cl)c13)CCNCC2
< 50 | Clc1ccc(OC2CCCCC2)c2cc3c(nc12)CCNCC3
< 5 | Fc1cc(C2CC2)c2nc3c(cc2c1Cl)CCNCC3
< 1 | Clc1ccc(C2CC2)c2nc3c(cc12)CCNCC3
< 5 | Fc1cc(C2CC2)c2nc3c(cc2c1F)CCNCC3

Continued, molecule first:

SMILES | EC50 [nM]
Fc1cccc(Oc2ccc(Cl)c3nc4c(cc23)CCNCC4)c1 | < 20
Fc1cc(F)c2cc3c(nc2c1C1CC1)CCNCC3 | < 5
Cc1c2c(nc3c(C4CC4)c(F)cc(F)c13)CCNCC2 | < 5
Cc1c2c(nc3c(OC4CCCCC4)ccc(F)c13)CCNCC2 | < 10
Cc1c2c(nc3c(Cl)ccc(OC4CCCCC4)c13)CCNCC2 | < 5
Cc1c2c(nc3c(OC4CCCCCC4)ccc(F)c13)CCNCC2 | < 10
